Measured values as given in US20050221501A1, “Dissolution method” (priority 2003, published 2005).

Assays:
[1] = Biopharmaceutics Classification System (BCS) classification; format: physicochemical
Text: Under the BCS system Class II compounds are sparingly soluble with high permeability.

[2] = pH-dependent aqueous solubility of the Agent; format: physicochemical; conditions: free-base form
[3] = aqueous dissolution medium containing 4% sodium lauryl sulfate, in 60 minutes; cited from earlier work

BCS class [1]	solubility ([2]; above pH 7)	ml of aqueous solvent required to dissolve 1 g of Agent ([2]; pH 6) [mL]	SMILES	% dissolution [3]
Class II	very low solubility	≥ 10000	COc1cc2ncnc(Nc3ccc(F)c(Cl)c3)c2cc1OCCCN1CCOCC1 [Agent, 4-(3′-chloro-4′-fluoroanilino)-7-methoxy-6-(3-morpholinopropoxy)quinazoline]	–
–	–	–	COC1=CC(=O)C[C@@H](C)[C@]12Oc1c(Cl)c(OC)cc(OC)c1C2=O [Griseofluvin]	at least 75%
